Assay results from patent US20070270418A1, “Inhibitors of P38 and Methods of Using the Same” (priority 2003, published 2007).
Like-named read-outs stand apart in the source and are kept apart here.

Legend:
[1] = test system: TNFα release from THP-1 cells; assay: TNFα release from LPS-stimulated THP-1 cells; format: cell-based; settings: LPS 10 μg/ml, 18 hours, read-out: TNFα (THP-1) IC50
Text: Compounds of the invention are screened for the ability to inhibit TNFα and IL-1β release from THP-1 cells stimulated with lipopolysaccharide (LPS) in vitro. The ability of compounds to inhibit TNFα and IL-1β release in this in vitro assay is correlated with the inhibition of p38 activity and TNFα and IL-1β expression in vivo, and is therefore an indicator of potential in vivo therapeutic activity (Lee J. C. et al, Ann. N.Y. Acad. Sci. 696: 149-170, 1993 and Nature, 372: 739-746, 1994).
THP-1 cells from ATCC (TIB202) are maintained at 37° C., 5% CO2 in RPMI 1640 media (MediaTech, Herndon, Va.) containing 4.5 g/L glucose, supplemented with 10% fetal bovine serum, 1% penicillin/streptomycin and 50 μM β-mercaptoethanol.
Test compounds are initially dissolved in RPMI media with 1% DMSO (v/v). Compounds are then serially diluted in RPMI media for all subsequent dilutions. The assay is performed under sterile conditions. THP-1 cells at a culture density of 6-8×10^5 cells/ml are collected and resuspended in the RPMI media at 10^6 cells/ml. 100 μl of resuspended cells are added to each well, which contain 100 μl of a test compound. Test compounds are prepared at twice the final concentration. Final DMSO concentration is no more than 0.5% (v/v). Cells are preincubated with compound for 30 minutes at 37° C., 5% CO2 prior to stimulation with lipopolysaccharide (LPS) (Sigma L-2880, 4 mg/ml stock in PBS). The final LPS concentration in each well is 10 or 30 μg/ml for TNFα and IL-1β release, respectively. Unstimulated control cell suspensions receive PBS vehicle only. Cell mixtures are incubated for 18 or 48 hours for TNFα and IL-1β release, respectively. 150 μl of supernatants are taken and transferred to a fresh plate and stored at −20° C. until further analysis.

p38α = target: T1, p38α (Homo sapiens, UniProt Q16539); assay: p38 MAP Kinase assay, ATF2 phosphorylation (ELISA); format: biochemical; settings: 40 μM ATP
T1 construct: p38 MAP Kinases are recombinant human full-length proteins with an amino-terminal GST fusion; GST (N); purchased Upstate (Charlottesville, Va.); host or cells: E. coli
T1 sequence (Q16539 whole entry, the tested form may be a part): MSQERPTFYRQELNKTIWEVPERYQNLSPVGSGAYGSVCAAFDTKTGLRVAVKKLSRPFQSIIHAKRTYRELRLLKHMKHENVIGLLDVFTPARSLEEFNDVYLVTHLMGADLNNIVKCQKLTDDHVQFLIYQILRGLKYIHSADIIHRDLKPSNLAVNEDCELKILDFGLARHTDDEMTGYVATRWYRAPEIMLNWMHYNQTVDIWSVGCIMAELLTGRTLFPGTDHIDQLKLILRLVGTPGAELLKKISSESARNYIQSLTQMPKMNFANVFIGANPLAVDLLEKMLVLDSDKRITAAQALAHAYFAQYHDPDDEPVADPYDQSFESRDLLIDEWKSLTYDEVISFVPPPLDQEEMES
Text: Compounds of the invention are screened for the ability to inhibit ATF2 phosphorylation by p38 MAP Kinase in vitro. The ability of compounds to inhibit ATF2 phosphorylation in this in vitro assay is correlated with the inhibition of p38 MAP Kinase and TNFα expression in vivo, and is therefore an indicator of potential in vivo therapeutic activity (Raingeaud, J., et al, J. Biol. Chem., 270: 7420-7426, 1995, Brinkman, M. N., et al, J. Bil. Chem. 274: 30882-30886, 1999 and Fuchs, S. Y. et al, J. Biol. Chem. 275: 12560-12564, 2000).
All kinases and the substrate ATF2 are acquired from Upstate (Charlottesville, Va.). p38 MAP Kinases are recombinant human full-length proteins with an amino-terminal GST fusion, expressed in and purified from E. coli. ATF2 is a GST fusion protein containing amino acids 19-96 of human ATF2 expressed in E. coli. All proteins were aliquoted and stored at −80° C.
p38 MAP Kinase assays are performed using an assay buffer containing 25 mM HEPES, pH 7.5, 10 mM MgCl2, 2 mM DTT, 20 mM β-glycerophosphate, 0.1 mM Na3VO4, 40 μM ATP and 1.25 μM of ATF2, together with 6 ng of p38α protein, 12 ng p38β protein, 1.5 ng p38γ, or 0.4 ng JNK2α2. Compounds are serially diluted in DMSO and 2 μL of test compound at 25× final concentration is used. The vehicle control receives DMSO only. Test compounds are pre-incubated with 20 μl of enzyme in kinase buffer (25 mM HEPES, pH 7.5, 10 mM MgCl2, 2 mM DTT, 20 mM 3-glycerophosphate and 0.1 mM Na3VO4) at room temperature for 15 minutes. […] The reactions are incubated for 30 minutes at 37° C. and terminated by the addition of 18 μl of 200 mM EDTA. An ELISA method is used to measure the phosphorylation of ATF2 at Thr 69. High binding 96-well plates (Corning 3369) are coated with 50 μl of kinase reaction for 1 hour at 37° C. The coated plates are washed with 200 μl washing buffer (25 mM Tris HCl, pH 8.3, 192 mM glycine, 0.1% SDS and 0.05% Tween-20) three times. The plates are then washed three times with SuperBlock in TBS (Pierce, 37535). After blocking, plates are incubated with 50 μl of rabbit anti-phospho-ATF2 antibody (Cell Signaling, 9221 L, 1:500) for 30 minutes at 37° C. Plates are washed three times with washing buffer prior to incubation with 50 μl HRP-conjugated goat anti-rabbit antibody (Cell Signaling, 7074, 1:500) for 30 minutes at 37° C. Plates are then washed three times with washing buffer before incubation with 50 μl of Ultra TMB-ELISA (Pierce, 34028) for 8 minutes at room temperature. Finally, 50 μl of phosphoric acid (1 M) is added to stop reactions and plate absorbance is read at 450 nm on a SpectraMax 250 plate reader.

Compound | IC50 ([1]; Homo sapiens, THP-1, 18 h) [nM] | IC50 (p38α) [nM] | IC50 [1] [nM]
CCC(CO)(CO)Nc1nccc(-c2c(-c3ccc(F)cc3)nc3occn23)n1 [CIX] | 19.8 | 30.5 | 
CN(C)CC(C)(C)CNc1nccc(-c2c(-c3ccc(F)cc3)nc3sccn23)n1 [CCXLIV] | 5.98 | 11.4 | 
CC(C)(C)OC(=O)N1CCC(Nc2nccc(-c3c(-c4ccc(F)cc4)nc4sccn34)n2)CC1 [CCXXXIII, 4-{4-[6-(4-fluorophenyl)-imidazo[2,1-b]thiazol-5-yl]-pyrimidin-2-ylamino}-piperidine-1-carboxylic acid tert-butyl ester] | 76.9 | 2.24 | 
OCCN(CCO)c1nccc(-c2c(-c3ccc(F)cc3)nc3occn23)n1 [XCIII] | 457 | 120 | 
Fc1ccc(-c2nc3occn3c2-c2ccnc(NCC3CCCNC3)n2)cc1 (stereo not drawn) [LXXXVIII] | 87 | 39.9 | 
CCOCCCNc1nccc(-c2c(-c3ccc(F)cc3)nc3occn23)n1 [XLIII] | 13.5 | 1.56 | 
CC(C)[C@@H](CO)Nc1nccc(-c2c(-c3ccc(Br)cc3)nc3sccn23)n1 [CCLXXI] |  | 75.7 | 100
CN(C)CC(C)(C)CNc1nccc(-c2c(-c3cccc(C(F)(F)F)c3)nc3occn23)n1 [CCCVII] | 136 | 43.3 | 
Cc1ccccc1-c1nc2occn2c1-c1ccnc(NCC(C)(C)CN(C)C)n1 [CCXCVIII] | 85.1 | 52.2 | 
C[C@@H](O)[C@@H](CO)Nc1nccc(-c2c(-c3ccc(F)cc3)nc3occn23)n1 [CVII] | 112 | 63.8 | 
CC[C@@H](CO)Nc1nccc(-c2c(-c3ccc(F)cc3)nc3sccn23)n1 [CCXIX] | 6.84 | 3.03 | 
CC(C)(Nc1nccc(-c2c(-c3ccc(F)cc3)nc3sccn23)n1)C(O)c1ccccc1 (stereo not drawn) [CCLX] | 213 | 30 | 
Fc1ccc(CNc2nccc(-c3c(-c4ccc(F)cc4)nc4sccn34)n2)cc1 [CXLIV] | 182 | 54.1 | 
O[C@H]1CC[C@H](Nc2nccc(-c3c(-c4ccc(F)cc4)nc4sccn34)n2)CC1 [CCXXI] | 5.56 | 1.57 | 
Fc1ccc(-c2nc3occn3c2-c2ccnc(NCc3ccco3)n2)cc1 [XXXVII] | 21.5 | 5.95 | 
CC(C)(CO)Nc1nccc(-c2c(-c3ccc(F)cc3)nc3sccn23)n1 [CCXLI] | 5.18 | 2.81 | 
OCC(CO)(CO)Nc1nccc(-c2c(-c3ccc(F)cc3)nc3occn23)n1 [LXXXVI] | 150 | 227 | 
CC(C)(CO)CNc1nccc(-c2c(-c3ccc(F)cc3)nc3sccn23)n1 [CCXX] | 2.41 | 1.56 | 
Fc1ccc(-c2nc3sccn3c2-c2ccnc(OCC3CC3)n2)cc1 [CL] | 218 | 256 | 
COCC(C)Nc1nccc(-c2c(-c3ccc(F)cc3)nc3sccn23)n1 (stereo not drawn) [CCXV] | 8.58 | 2.32 | 
Fc1ccc(-c2nc3sccn3c2-c2ccnc(NCCN3CCN(Cc4ccccc4)CC3)n2)cc1 [CCLVIII] | 643 | 57.7 | 

Compound | IC50 ([1]; Homo sapiens, THP-1, 18 h) [nM] | IC50 (p38α) [nM] | IC50 [1] [nM]
Fc1ccc(-c2nc3occn3c2-c2ccnc(NC[C@H]3CCCO3)n2)cc1 [XLV] | 11.2 | 11.7 | 
OC[C@@H](Nc1nccc(-c2c(-c3ccc(F)cc3)nc3occn23)n1)[C@H](O)c1ccccc1 [LXXXIII] | 346 | 185 | 
Fc1ccc(-c2nc3sccn3c2-c2ccnc(NCCc3ccncc3)n2)cc1 [CCXVIII] | 4.46 | 5.87 | 
OCCNc1nccc(-c2c(-c3ccc(F)cc3)nc3occn23)n1 [XIV] | 338 | 41.6 | 
COc1cccc(-c2nc3sccn3c2-c2nc(SC)ncc2-c2ccccc2)c1 [CCXXXIV] | > 10000 |  | 
CCOC(=O)Cc1csc2nc(-c3ccc(F)cc3)c(-c3ccnc(SC)n3)n12 [CLIV] |  | 1000 | 
CCOC(=O)Cc1csc2nc(-c3ccc(F)cc3)c(-c3ccnc(N4CCCCC4)n3)n12 [CLXIV] |  | 1000 | 
COc1cccc(-c2nc3sccn3c2-c2ccnc(N[C@H](CO)[C@H](O)c3ccccc3)n2)c1 [CXCVI] |  | 819 | 
Cc1csc(Nc2nccc(-c3c(-c4ccc(F)cc4)nc4occn34)n2)n1 [LXXII] |  | 664 | 
CNCCNc1nccc(-c2c(-c3ccc(F)cc3)nc3occn23)n1 [XCII] |  | 3330 | 
CC(C)CNc1nccc(-c2c(-c3ccc(F)cc3)nc3sccn23)n1 [CXLII] |  | 1.97 | 
Fc1ccc(-c2nc3sccn3c2-c2ccnc(NCc3ccco3)n2)cc1 [CXLIII] |  | 8.22 | 
Nc1cc(-c2c(-c3ccc(F)cc3)nc3sccn23)nc(NC[C@H](O)c2ccccc2)n1 [CCXXX] |  | 2570 | 
Fc1ccc(-c2nc3sccn3c2-c2ccnc(NCc3ccccc3)n2)cc1 [CXLI] |  | 4.92 | 
CSc1nccc(-c2c(-c3ccc(F)cc3)nc3sccn23)n1 [CXXXIX, 6-(4-fluorophenyl)-5-(2-methylsulfanyl-pyrimidin-4-yl)-imidazo[2,1-b]thiazole] |  | 635 | 
CC(C)[C@@H](Nc1nccc(-c2c(-c3ccc(F)cc3)nc3sccn23)n1)C(=O)O [CLXXIV] |  | 671 | 
CCOC(=O)Cc1csc2nc(-c3ccc(F)cc3)c(-c3ccnc(NCc4ccccc4)n3)n12 [CLX] |  | 1000 | 
CC(C)[C@@H](CO)Nc1nccc(-c2c(-c3ccc(C(F)(F)F)cc3)nc3sccn23)n1 [CCII] |  | 924 | 
CCOC(=O)Cc1csc2nc(-c3ccc(F)cc3)c(-c3ccnc(NCC4CCCCC4)n3)n12 [CLXI] |  | 1000 | 
COc1cccc(-c2nc3sccn3c2-c2ccnc(NC(C)CO)n2)c1 (stereo not drawn) [CXCV] |  | 44.7 | 
